Measurements taken from ChEMBL document CHEMBL3593228, “Hedgehog inhibitors from Artocarpus communis and Hyptis suaveolens” (Bioorg Med Chem, 2015).
Activity calls are given as the source filed them. The rule behind the calls is not given here.

Assays:
[1] = Inhibition of hedgehog signaling pathway in human HaCaT cells assessed as GLI1-mediated transcriptional activity after 12 hrs by luciferase assay; type: cell-based
DU-145 = assay: Cytotoxicity against Hh signaling abnormally activated human DU145 cells after 24 hrs by fluorometric microculture assay; type: functional, cell-based; conditions: DU-145, 24 h
[2] = Cytotoxicity against Hh signaling abnormally activated human PANC1 cells after 24 hrs by fluorometric microculture assay; type: functional, cell-based; conditions: PANC-1, 24 h
[3] = Cytotoxicity against mouse C3H10T1/2 cells after 24 hrs by fluorometric microculture assay; type: cell-based; conditions: C3H 10T1/2, 24 h
[4] = Inhibition of hedgehog signaling pathway in human DU145 cells assessed as reduction of BCL2 expression at 7 to 13.9 uM after 12 hrs by Western blotting; type: cell-based; conditions: DU-145
[5] = Inhibition of hedgehog signaling pathway in human HaCaT cells assessed as reduction of BCL2 expression after 12 hrs by Western blotting; type: cell-based
[6] = target: T1, Zinc finger protein GLI1 (Homo sapiens) (UniProt P08151); assay: Inhibition of GLI1-DNA (unknown origin) complex formation at 15 to 150 uM after 20 mins by electrophoretic mobility shift assay
T1 sequence (whole entry): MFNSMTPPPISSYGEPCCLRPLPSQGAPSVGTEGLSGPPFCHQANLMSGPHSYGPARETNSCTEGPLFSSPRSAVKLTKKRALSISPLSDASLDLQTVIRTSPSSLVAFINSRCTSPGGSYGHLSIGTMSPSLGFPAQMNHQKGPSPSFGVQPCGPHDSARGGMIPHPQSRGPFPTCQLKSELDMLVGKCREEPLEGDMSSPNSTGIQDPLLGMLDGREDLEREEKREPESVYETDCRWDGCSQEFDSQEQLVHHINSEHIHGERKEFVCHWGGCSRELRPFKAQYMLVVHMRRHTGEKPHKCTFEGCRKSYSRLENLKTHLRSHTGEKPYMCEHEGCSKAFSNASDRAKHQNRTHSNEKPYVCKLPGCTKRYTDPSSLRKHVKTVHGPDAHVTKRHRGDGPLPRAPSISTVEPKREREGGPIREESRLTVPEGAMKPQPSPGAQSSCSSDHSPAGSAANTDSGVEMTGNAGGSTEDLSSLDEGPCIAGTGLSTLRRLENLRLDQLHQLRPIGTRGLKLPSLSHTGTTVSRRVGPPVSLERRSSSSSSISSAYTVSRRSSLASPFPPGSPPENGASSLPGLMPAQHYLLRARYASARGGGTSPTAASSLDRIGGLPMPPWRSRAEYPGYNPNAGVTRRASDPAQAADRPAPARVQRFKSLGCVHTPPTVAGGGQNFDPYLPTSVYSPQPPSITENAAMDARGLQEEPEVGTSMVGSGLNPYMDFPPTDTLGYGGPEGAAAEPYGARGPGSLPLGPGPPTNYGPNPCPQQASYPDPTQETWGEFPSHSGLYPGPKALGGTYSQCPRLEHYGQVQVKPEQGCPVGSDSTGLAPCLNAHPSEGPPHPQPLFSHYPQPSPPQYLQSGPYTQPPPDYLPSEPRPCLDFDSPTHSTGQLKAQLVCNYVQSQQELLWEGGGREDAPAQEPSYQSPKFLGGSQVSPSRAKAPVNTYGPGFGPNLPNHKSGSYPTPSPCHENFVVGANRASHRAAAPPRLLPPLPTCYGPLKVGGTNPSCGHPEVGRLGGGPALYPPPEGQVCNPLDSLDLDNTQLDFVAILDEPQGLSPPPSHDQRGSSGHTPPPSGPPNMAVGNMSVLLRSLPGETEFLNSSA

[7] = target: T1, Zinc finger protein GLI1 (Homo sapiens); assay: Inhibition of GLI1-DNA (unknown origin) complex formation at 15 to 30 uM after 20 mins by electrophoretic mobility shift assay
[8] = Inhibition of hedgehog signaling pathway in human HaCaT cells assessed as reduction of BCL2 expression at 7.6 uM after 12 hrs by Western blotting; type: cell-based
[9] = Inhibition of hedgehog signaling pathway in human HaCaT cells assessed as reduction of BCL2 expression at 13.9 uM after 12 hrs by Western blotting; type: cell-based

For `CC1(C)CCC[C@]2(C)Oc3c(O)ccc(CCC(=O)c4ccc(O)cc4O)c3C[C@@H]12`, the IC50 [1] was 40.7 µM, the inhibition [1] was “Dose-dependent effect” and the IC50 (DU-145) was 53.7 µM. The IC50 [2] was 34.3 µM and the IC50 [3] was greater than 75 µM.

`C/C(=C\Cc1c(CCC(=O)c2ccc(O)cc2O)ccc(O)c1O)CCCC(C)(C)O` showed an IC50 [1] greater than 75 µM, an IC50 [2] greater than 75 µM and an IC50 [3] greater than 75 µM.

In the case of `C=C1C(=O)O[C@H]2/C=C(\C)C[C@@H]3C=C(C/C=C/[C@@](C)(OO)CC[C@H]12)C(=O)O3`, the IC50 [1] is reported as 7.6 µM, the inhibition [1] is reported as “Dose-dependent effect” and the inhibition [4] is reported as “Active”. The inhibition [5] was “Dose-dependent effect”, the IC50 (DU-145) was 30.3 µM and the IC50 [2] was 17.9 µM. For the same compound, the inhibition [6] was “Active” and the IC50 [3] was greater than 55.6 µM.

In the case of `CC(C)=CCCC1(C)CCc2c(CCC(=O)c3ccc(O)cc3O)ccc(O)c2O1` (stereo not given), the IC50 [1] is reported as 44.2 µM, the inhibition [1] is reported as “Dose-dependent effect” and the IC50 [2] is reported as 59.5 µM. For the same compound, the IC50 [3] was greater than 75 µM.

For `CC(C)=CCC/C(C)=C/Cc1c(CCC(=O)c2ccc(O)cc2O)ccc(O)c1O`, the IC50 [1] was 23.6 µM, the inhibition [1] was “Dose-dependent effect” and the inhibition [7] was “Active”. For the same compound, the IC50 (DU-145) was 80.6 µM, the IC50 [2] was 42.9 µM and the IC50 [3] was greater than 75 µM.

Work on `CC(C)(O)CCCC1(C)CCc2c(CCC(=O)c3ccc(O)cc3O)ccc(O)c2O1` (stereo not given) yielded an IC50 [1] of 29.5 µM and an IC50 [2] of 36.7 µM.

In the case of `C=C1C(=O)O[C@H]2/C=C(\C)C[C@@H]3C=C(CC/C=C(\C)CC[C@H]12)C(=O)O3`, the IC50 [1] is reported as 4 µM, the inhibition [1] is reported as “Dose-dependent effect” and the inhibition [4] is reported as “Active”. The inhibition [5] was “Dose-dependent effect”, the IC50 (DU-145) was 32.6 µM and the IC50 [2] was 12.1 µM. For the same compound, the inhibition [6] was “inactive”, the inhibition [8] was “Active” and the IC50 [3] was greater than 30.5 µM.

With `CC(C)=CCCC1(C)Oc2c(O)ccc(CCC(=O)c3ccc(O)cc3O)c2CC1O` (stereo not given) the IC50 [1] was 40.1 µM, the inhibition [1] was “Dose-dependent effect” and the IC50 [2] was 50 µM. The IC50 [3] was greater than 75 µM.

For `C=C1C(=O)O[C@H]2/C=C(\C)C[C@@H]3C=C(CC[C@@H](OO)C(=C)CC[C@H]12)C(=O)O3`, the IC50 [1] was 4.7 µM, the inhibition [1] was “Dose-dependent effect” and the inhibition [4] was “Active”. For the same compound, the inhibition [5] was “Dose-dependent effect”, the IC50 (DU-145) was 18.8 µM and the IC50 [2] was 15.7 µM. For the same compound, the inhibition [9] was “Active”, the inhibition [6] was “Active” and the IC50 [3] was greater than 27.8 µM.

In the case of `COC(C)(C)CCC/C(C)=C/Cc1c(CCC(=O)c2ccc(O)cc2O)ccc(O)c1O`, the IC50 [1] is reported as greater than 75 µM, the inhibition [7] is reported as “Active” and the IC50 [2] is reported as greater than 75 µM. It also gave an IC50 [3] greater than 75 µM.

For `CC(C)=CCC/C(C)=C/Cc1c(O)cc2c(c1O)C(=O)C[C@@H](c1ccc(O)cc1)O2` [BONANNIONE A], the IC50 [1] was 14.6 µM, the inhibition [1] was “Dose-dependent effect” and the IC50 [2] was 29.9 µM. The IC50 [3] was greater than 75 µM.

`COC(C)(C)CCCC1(C)CCc2c(CCC(=O)c3ccc(O)cc3O)ccc(O)c2O1` (stereo not given) gave an IC50 [1] of 39.9 µM and an IC50 [2] of 48.3 µM.

`CC(C)(O)CCCC1(C)Oc2c(O)ccc(CCC(=O)c3ccc(O)cc3O)c2CC1O` (stereo not given) gave an IC50 [1] of 43.5 µM and an IC50 [2] of 58.8 µM.

In the case of `C=C1C(=O)O[C@H]2/C=C(\C)C[C@@H]3C=C(C/C=C/[C@@](C)(O)CC[C@H]12)C(=O)O3`, the IC50 [1] is reported as 16.3 µM, the IC50 [2] is reported as 46.9 µM and the IC50 [3] is reported as greater than 50 µM.
